According to ChEMBL document CHEMBL1140917, “Structure-activity relationships of antitubercular nitroimidazoles. 1. Structural features associated with aerobic and anaerobic activities of 4- and 5-nitroimidazoles” (2009):

Columns and labels:
Assay type in all cases: functional
[1] = system: Mycobacterium tuberculosis; assay: Antimycobacterial activity against Mycobacterium tuberculosis with cofactor F420 mutant
[2] = system: Mycobacterium tuberculosis; assay: Antimycobacterial activity against Mycobacterium tuberculosis with deazaflavin-dependent nitroreductase mutant
[3] = system: Mycobacterium tuberculosis; assay: Antimycobacterial activity against Mycobacterium tuberculosis with deazaflavin-dependent nitroreductase mutant under anaerobic condition

Structure (SMILES)	MIC [1]	MIC [2]	MAC [3]
CO[C@@H]1COc2nc([N+](=O)[O-])cn2C1	>100 µM	>100 µM	250 µM
COc1ncc([N+](=O)[O-])n1CCO	>100 µM	>100 µM	>500 µM
O=[N+]([O-])c1cnc2n1C[C@H](OCc1ccc(OC(F)(F)F)cc1)CO2	>100 µM	>100 µM	62.5 µM
O=[N+]([O-])c1cnc2n1C[C@@H](O)CC2	>100 µM	>100 µM	>100 µM
O=[N+]([O-])c1cn2c(n1)OC[C@@H](O)C2	>100 µM	>100 µM	500 µM
COc1nc([N+](=O)[O-])cn1CCOCc1ccc(OC(F)(F)F)cc1	>100 µM	>100 µM	250 µM
O=[N+]([O-])c1cnc2n1C[C@H](O)CO2	>100 µM	>100 µM	125 µM
Cc1ncc([N+](=O)[O-])n1CCOCc1ccc(OC(F)(F)F)cc1	>100 µM	>100 µM	125 µM
O=[N+]([O-])c1cn2c(n1)C=C[C@@H](OCc1ccc(OC(F)(F)F)cc1)C2	>100 µM	>100 µM	62.5 µM
Cc1nc([N+](=O)[O-])cn1CCOCc1ccc(OC(F)(F)F)cc1	>100 µM	>100 µM	>500 µM
O=[N+]([O-])c1cn2c(n1)CC[C@@H](OCc1ccc(OC(F)(F)F)cc1)C2	>100 µM	>100 µM	250 µM
Cc1nc([N+](=O)[O-])cn1CCO	>100 µM	>100 µM	>500 µM
O=[N+]([O-])c1cnc2n1C[C@H](O)CC2	>100 µM	>100 µM	>500 µM
FC(F)(F)Oc1ccc(CO[C@@H]2COc3nccn3C2)cc1	>100 µM	>100 µM	>500 µM
Cc1ncc([N+](=O)[O-])n1CCO [METRONIDAZOLE]	>100 µM	>100 µM	
O=[N+]([O-])c1cn2c(n1)OC[C@@H](OCc1ccc(OC(F)(F)F)cc1)C2 [PRETOMANID]	>100 µM	>100 µM	>500 µM
